Laboratory results as given in patent US6878711B2, “Indole derivatives as PDE5-inhibitors” (Lilly Icos LLC, priority 2000, dated 2005).

Tests used:
[1] = target: human recombinant PDE5 (Homo sapiens, UniProt O76074); experiment: Inhibitory effect on cGMP-PDE (one-step assay, 8-[H3]-cGMP)
[2] = target: T1, PDE5 (bovine aorta) (Bos taurus, UniProt Q28156); experiment: Inhibitory effect on cGMP-PDE, enzyme from bovine aorta; assay type: biochemical; conditions: vs. bovine aorta
T1 construct: from tissue; host or cells: bovine aorta
From the text: Biophys. Acta, 384, 430 (1975).

IC50 [1] [nM]	melting point [°C]	Compound	further results
575	–	CN1CCN2[C@@H](c3ccc4c(c3)OCO4)c3[nH]c4ccccc4c3C[C@@H]2C1=O [Example 2, (6S,12aR)-6-Benzo[1,3]dioxol-5-yl-2-methyl-3,4,6,7,12,12a-hexahydro-2H-pyrazino-[1′2′:1,6]pyrido[3,4-b]indol-1-one]	–
–	–	CN1CCN2[C@@H](c3ccc4c(c3)OCO4)c3[nH]c4ccccc4c3C[C@H]2C1=O [Example 3]	IC50 [2]: 100 nM
–	158 to 162	CN1CC(=S)N2[C@H](c3ccc4c(c3)OCO4)c3[nH]c4ccccc4c3C[C@@H]2C1=S	–
–	177 to 182	CN1CC(=S)N2[C@H](c3ccc4c(c3)OCO4)c3[nH]c4ccccc4c3C[C@H]2C1=S [Example 6, (6R,12aS)-6-Benzo[1,3]dioxol-5-yl-2-methyl 2,3,6,7,12,12a-hexahydropyrazino[1′,2′:1,6]pyrido[3,4-b]indole-1,4-dithione]	–
54	–	CN1CCN2[C@H](c3ccc4c(c3)OCO4)c3[nH]c4ccccc4c3C[C@@H]2C1=O [Example 1, (6R,12aR)-6-Benzo[1,3]dioxol-5-yl-2-methyl-3,4,6,7,12,12a-hexahydro-2H-pyrazino[1′,2′:1,6]pyrido[3,4-b]indole-1-one]	–
2.3	–	O=C1CNC[C@H]2Cc3c([nH]c4ccccc34)[C@@H](c3ccc4c(c3)OCO4)N12 [Example 4]	–
